Where two headings read alike, the source gives them in different places.
Experiments:
Type in all cases: in vivo
Plutella xylostella = test: Insecticidal activity, spray on pre-infested radish plants: Plutella xylostella; conditions: for Fatality rate on Plutella xylostella (%): Table 3; for pest or weed control at 0.1 ppm / pest or weed control at 1 ppm / pest or weed control at 10 ppm: Plutella xylostella, 144 h, read-out: fatality rate on Plutella xylostella
Description: (§1) For determination of insecticidal activity, the test method was as follows: a test solution with a desired concentration was prepared by dissolving a test compound sample in a suitable solvent (the kind of solvent was such as acetone, methanol, DMSO, etc., and was selected according to its dissolving ability for the sample). The test cell was composed of a small open container with 12-15 day old radish plants inside. The plants were pre-infested by placing 30-40 pests located on one leaf cut from the cultivated plant on one leaf of the test plant (leaf cutting method). As the leaves dehydrated, the pests moved on the test plants. After the pre-infesting, the soil of the test cells was covered with a layer of sand.
(§2) The test method was as follows: the test was repeated for three times, and after spraying the formulated test compound, each test unit was allowed to dry for 1 hour, and then a black mesh cover was placed at the top. The test units were kept in a growth chamber at 25° C. and 70% relative humidity for 6 days. The mortality (fatality rate) of the insects was then visually assessed for each test unit, and the fatality rate was calculated as follows: […]

Mythimna separata = test: Insecticidal activity, spray on pre-infested radish plants: Mythimna separata; conditions: for Fatality rate on Mythimna separata (%): Table 3; for pest or weed control at 0.1 ppm / pest or weed control at 1 ppm / pest or weed control at 10 ppm: Mythimna separata, 144 h, read-out: fatality rate on Mythimna separata
Description: as §1, §2

Tetranychus cinnabarinus = test: Acaricidal activity, slide immersion of female adult mites: Tetranychus cinnabarinus; conditions: read-out: fatality rate on Tetranychus cinnabarinus
Description: The test method was as follows: a test solution with a desired concentration was prepared by dissolving a test compound sample in a suitable solvent (the kind of solvent was such as acetone, methanol, DMSO, etc., and was selected according to its dissolving ability for the sample). A double-sided adhesive tape was cut into 2-3 cm long pieces, the pieces were attached to one end of a microscope slide, paper pieces on the adhesive tape were removed using tweezers, female adult mites which were consistent in size, bright in body color and lively in action were selected using a zero-size brush pen, the backs of the female adult mites were adhered to the double-sided adhesive tape (note: the adhesion should not cover mite feet, mite whiskers and mouthparts), with 4 rows of mites adhered to each piece and 10 heads of the mites adhered to each row.
One end of the glass slide with the mites was immersed into a drug liquid, with slightly shaking for 5 seconds, and then the slide was taken out. The excess drug liquid around the mite body and is surroundings is quickly sucked off using absorbent paper. The slide was placed in the biochemical incubator described above, and the results were checked by using binoculars after 24 hours. The mites were slightly touched by using a brush pen, the mites with immobility in feet were considered to be dead, and the fatality rate was calculated. The fatality rate was calculated as follows: […]

Spodoptera litura = test: Insecticidal activity, spray on pre-infested radish plants: Spodoptera litura; conditions: 144 h, read-out: fatality rate on Spodoptera litura
Description: as §1, §2

Cnaphalocrocis medinalis = test: Insecticidal activity, spray on pre-infested radish plants: Cnaphalocrocis medinalis; conditions: 144 h, read-out: fatality rate on Cnaphalocrocis medinalis
Description: as §1, §2

Pieris rapae = test: Insecticidal activity, spray on pre-infested radish plants: Pieris rapae; conditions: 144 h, read-out: fatality rate on Pieris rapae
Description: as §1, §2

[1] = tested on: Frankliniella occidentalis; test: Insecticidal activity, spray on pre-infested radish plants: Frankliniella occidentalis; conditions: for Fatality rate on Frankliniella occidentalis (%): Table 3; for pest or weed control at 1 ppm / pest or weed control at 10 ppm / pest or weed control at 25 ppm: Frankliniella occidentalis, 144 h, read-out: fatality rate on Frankliniella occidentalis
Description: as §1
The test method was as follows: the test was repeated for three times, and after spraying the formulated test compound, each test unit was allowed to dry for 1 hour, and then a black mesh cover was placed at the top. The test units were kept in a growth chamber at 25° C. and 70% relative humidity for 6 days. The mortality (fatality rate) of the insects was then visually assessed for each test unit, and the fatality rate was calculated as follows:
[formula] (1) Test Results for the Control of Frankliniella occidentalis by Exemplary Example Compounds

Chilo suppressalis = test: Insecticidal activity, spray on pre-infested radish plants: Chilo suppressalis; conditions: for Fatality rate on Chilo suppressalis (%): Table 3; for pest or weed control at 0.1 ppm / pest or weed control at 1 ppm / pest or weed control at 10 ppm: Chilo suppressalis, 144 h, read-out: fatality rate on Chilo suppressalis
Description: as §1, §2

SMILES: Cc1cc(C2=NOC(c3cc(F)c(F)c(F)c3)(C(F)(F)F)C2)ccc1C(=O)NCc1ncc(C(F)(F)F)cc1Cl (stereo not drawn) [Compound 10, N-((3-chloro-5-(trifluoromethyl)pyridin-2-yl)methyl)-2-methyl-4-(5-(trifluoromethyl)-5-(3,4,5-trifluorophenyl)-4,5-dihydroisoxazol-3-yl)benzamide]
- Fatality rate on Plutella xylostella (%) (Plutella xylostella; 0.1 ppm): 90%
- Fatality rate on Plutella xylostella (%) (Plutella xylostella; 1 ppm): 100%
- Fatality rate on Plutella xylostella (%) (Plutella xylostella; 10 ppm): 100%
- pest or weed control at 0.1 ppm (Plutella xylostella; dose 0.1 ppm, spray, 6 days): > 80%
- pest or weed control at 1 ppm (Plutella xylostella; dose 1 ppm, spray, 6 days): > 80%
- pest or weed control at 10 ppm (Plutella xylostella; dose 10 ppm, spray, 6 days): > 80%
- Fatality rate on Mythimna separata (%) (Mythimna separata; 0.1 ppm): 85%
- Fatality rate on Mythimna separata (%) (Mythimna separata; 1 ppm): 100%
- Fatality rate on Mythimna separata (%) (Mythimna separata; 10 ppm): 100%
- pest or weed control at 0.1 ppm (Mythimna separata; dose 0.1 ppm, spray, 6 days): > 80%
- pest or weed control at 1 ppm (Mythimna separata; dose 1 ppm, spray, 6 days): > 80%
- pest or weed control at 10 ppm (Mythimna separata; dose 10 ppm, spray, 6 days): > 80%
- pest or weed control at 1 ppm (Tetranychus cinnabarinus; dose 1 ppm, immersion 5 seconds, checked after 24 hours): > 80%
- pest or weed control at 10 ppm (Tetranychus cinnabarinus; dose 10 ppm, immersion 5 seconds, checked after 24 hours): > 80%
- pest or weed control at 25 ppm (Tetranychus cinnabarinus; dose 25 ppm, immersion 5 seconds, checked after 24 hours): > 80%
- pest or weed control at 0.1 ppm (Spodoptera litura; dose 0.1 ppm, spray, 6 days): > 80%
- pest or weed control at 1 ppm (Spodoptera litura; dose 1 ppm, spray, 6 days): > 80%
- pest or weed control at 10 ppm (Spodoptera litura; dose 10 ppm, spray, 6 days): > 80%
- pest or weed control at 0.1 ppm (Cnaphalocrocis medinalis; dose 0.1 ppm, spray, 6 days): > 80%
- pest or weed control at 1 ppm (Cnaphalocrocis medinalis; dose 1 ppm, spray, 6 days): > 80%
- pest or weed control at 10 ppm (Cnaphalocrocis medinalis; dose 10 ppm, spray, 6 days): > 80%
- pest or weed control at 0.1 ppm (Pieris rapae; dose 0.1 ppm, spray, 6 days): > 80%
- pest or weed control at 1 ppm (Pieris rapae; dose 1 ppm, spray, 6 days): > 80%
- pest or weed control at 10 ppm (Pieris rapae; dose 10 ppm, spray, 6 days): > 80%
- Fatality rate on Frankliniella occidentalis (%) ([1]; 1 ppm): 85%
- Fatality rate on Frankliniella occidentalis (%) ([1]; 10 ppm): 100%
- Fatality rate on Frankliniella occidentalis (%) ([1]; 25 ppm): 100%
- pest or weed control at 1 ppm ([1]; dose 1 ppm, spray, 6 days): > 80%
- pest or weed control at 10 ppm ([1]; dose 10 ppm, spray, 6 days): > 80%
- pest or weed control at 25 ppm ([1]; dose 25 ppm, spray, 6 days): > 80%
- Fatality rate on Chilo suppressalis (%) (Chilo suppressalis; 0.1 ppm): 85%
- Fatality rate on Chilo suppressalis (%) (Chilo suppressalis; 1 ppm): 100%
- Fatality rate on Chilo suppressalis (%) (Chilo suppressalis; 10 ppm): 100%
- pest or weed control at 0.1 ppm (Chilo suppressalis; dose 0.1 ppm, spray, 6 days): > 80%
- pest or weed control at 1 ppm (Chilo suppressalis; dose 1 ppm, spray, 6 days): > 80%
- pest or weed control at 10 ppm (Chilo suppressalis; dose 10 ppm, spray, 6 days): > 80%

SMILES: Cc1cc(C2=NOC(c3cc(Cl)c(F)c(Cl)c3)(C(F)(F)F)C2)ccc1C(=O)NCc1ncc(Cl)cc1Cl (stereo not drawn) [Compound 11]
- pest or weed control at 0.1 ppm (Plutella xylostella): > 80%
- pest or weed control at 1 ppm (Plutella xylostella): > 80%
- pest or weed control at 10 ppm (Plutella xylostella): > 80%
- pest or weed control at 0.1 ppm (Mythimna separata): > 80%
- pest or weed control at 1 ppm (Mythimna separata): > 80%
- pest or weed control at 10 ppm (Mythimna separata): > 80%
- pest or weed control at 1 ppm (Tetranychus cinnabarinus; 24 h): > 80%
- pest or weed control at 10 ppm (Tetranychus cinnabarinus; 24 h): > 80%
- pest or weed control at 25 ppm (Tetranychus cinnabarinus; 24 h): > 80%
- pest or weed control at 0.1 ppm (Spodoptera litura): > 80%
- pest or weed control at 1 ppm (Spodoptera litura): > 80%
- pest or weed control at 10 ppm (Spodoptera litura): > 80%
- pest or weed control at 0.1 ppm (Cnaphalocrocis medinalis): > 80%
- pest or weed control at 1 ppm (Cnaphalocrocis medinalis): > 80%
- pest or weed control at 10 ppm (Cnaphalocrocis medinalis): > 80%
- pest or weed control at 0.1 ppm (Pieris rapae): > 80%
- pest or weed control at 1 ppm (Pieris rapae): > 80%
- pest or weed control at 10 ppm (Pieris rapae): > 80%
- pest or weed control at 1 ppm [1]: > 80%
- pest or weed control at 10 ppm [1]: > 80%
- pest or weed control at 25 ppm [1]: > 80%
- pest or weed control at 0.1 ppm (Chilo suppressalis): > 80%
- pest or weed control at 1 ppm (Chilo suppressalis): > 80%
- pest or weed control at 10 ppm (Chilo suppressalis): > 80%

From patent US12564193B2, “Isoxazoline-substituted benzamide derivative, and preparation method therefor and use thereof” (SHANDONG UNITED PESTICIDE INDUSTRY CO., LTD., priority 2020, dated 2026)
